One assay has as its system UWB1.289. Put plainly: Cytotoxicity, UWB1.289 cells. It counts as cell-based, human. The note with it: Homo sapiens, UWB1289; UWB1.289, BRCA1-defective ovarian cancer cells; COH29 72 h; read-out: IC50, mean ± SEM. How it is done: (§1) All cell lines were acquired from the American Type Culture Collection (Manassas, Va., USA). Cells were maintained in RPMI 1640 medium (Mediatech) with 10% fetal bovine serum, 2 mM glutamine, and 100 U of penicillin and 100 μg of streptomycin per ml of medium (Sigma) at 37° C. in 5% CO2. To isolate HCC1437+BRCA1 cells, parental HCC1937 cells were transfected with pcDNA3.1 plasmid expressing full-length BRCA1 cDNA. Stable transfectant clones were selected and used for drug sensitivity assays. For stable transfection, cells at 30-40% confluence were incubated overnight with […] of plasmid DNA, using FUGENE® 6 transfectin reagent (Roche Molecular Biochemical, Monza, Italy) according to the manufacturer's instructions. Cells were then selected in puromycin (1 μg/ml) (Invitrogen life Technologies, La Jolla, Calif., USA.) After 20 to 30 days, viable puromycin-resistant colonies from HCC1937 transfections were expanded and screened. The clones that stably expressed […] and retained growth potential were assayed for BRCA1 expression by Western blot analysis. By Western blot analysis, we evaluated the restoration of BRCA1 expression in the puromycin-resistant cDNA/transfectant cells.
(§2) The MTT cytotoxicity assay was performed by incubating with MTT and monitoring the MTT formazan formed by viable cells with a microplate reader at a wavelength of 560 nm; the survival, ratio was determined using the formula: (Atest−Ablank)/(Acontrol−Ablank)×100%. The cytotoxicity was determined in 96-well plates using the semiautomatic fluorescence-based Digital Imaging Microscopy System (DIMSCAN). DIMSCAN uses digital imaging microscopy to quantify viable cells, which selectively accumulate FDA (fluorescein diacetate; Alfa Aesar, Ward Hill, Mass.). DIMSCAN is capable of measuring cytotoxicity over a 4 log dynamic range by quantifying total fluorescence per well (which is proportional to the number of viable cells) after elimination of the background fluorescence by digital thresholding and eosin Y (Mallinckrodt Baker, Center Valley, Pa.) quenching. Cells were seeded into 96-well plates in 100 μL of complete medium at 2,000 to 5,000 cells per well depending on cell line growth rate. After overnight incubation, test compound was added to each well at various concentrations in 50 μL of culture medium. […] Total fluorescence per well was then measured using DIMSCAN, and the results were expressed as the ratio of the fluorescence in treated wells to the fluorescence in untreated wells (survival fraction).

A further assay concerns UWB1.289 + BRCA1. Put plainly: Cytotoxicity, UWB1.289+BRCA1 cells. The format is cell-based, human. To be noted: Homo sapiens, UWB1289; UWB1.289 + BRCA1 (WT); COH29 72 h; read-out: IC50, mean ± SEM. How it is done:
as §1, §2

Another assay has as its system KB-Gem. Description: Cytotoxicity, KB-Gem cells. It counts as cell-based, human. The note with it: Homo sapiens, gemcitabine-resistant, read-out: IC50, mean ± SEM. How it is done:
as §1
(§3) The MTT cytotoxicity assay was performed by incubating with MTT and monitoring the MTT formazan formed by viable cells with a microplate reader at a wavelength of 560 nm; the survival, ratio was determined using the formula: (Atest−Ablank)/(Acontrol−Ablank)×100%. The cytotoxicity was determined in 96-well plates using the semiautomatic fluorescence-based Digital Imaging Microscopy System (DIMSCAN). DIMSCAN uses digital imaging microscopy to quantify viable cells, which selectively accumulate FDA (fluorescein diacetate; Alfa Aesar, Ward Hill, Mass.). DIMSCAN is capable of measuring cytotoxicity over a 4 log dynamic range by quantifying total fluorescence per well (which is proportional to the number of viable cells) after elimination of the background fluorescence by digital thresholding and eosin Y (Mallinckrodt Baker, Center Valley, Pa.) quenching. Cells were seeded into 96-well plates in 100 μL of complete medium at 2,000 to 5,000 cells per well depending on cell line growth rate. After overnight incubation, test compound was added to each well at various concentrations in 50 μL of culture medium. After incubation with the drugs for 96 hours at 37° C., FDA (final concentration: […]) and eosin Y [final concentration: 0.1% (w/v)] were added to each well and the cells were incubated for an additional 20 minutes at 37° C. Total fluorescence per well was then measured using DIMSCAN, and the results were expressed as the ratio of the fluorescence in treated wells to the fluorescence in untreated wells (survival fraction).

The next assay has as its system A2780-DDDP. Description: Cytotoxicity, A2780-DDDP cells. The format is cell-based, human. To be noted: Homo sapiens, cisplatin-resistant ovarian cells, read-out: IC50, mean ± SEM. How it is done: as §1, §3
Assay [1] concerns DNA damage checkpoint proteins (ATM, CHK1, CHK2, γ-H2AX). Put plainly: DNA damage checkpoint proteins by Western blot. The format is cell-based, human. How it is done:
For subcellular fractionation, cells were trypsinized and washed with cold PBS solution twice. After centrifugation at 1,200 g for 5 min, cells were incubated in buffer (50 mM HEPES, pH 7.5, 150 mM NaCl, 1 mM EDTA) containing 0.2% NONIDET™ P-40 (NP-40), supplemented with protease inhibitors (5 μg/ml each of pepstatin, leupeptin, and aprotinin) and phosphatase inhibitors on ice for 5 min. Following centrifugation at 1,000 g for 5 min, the supernatant was collected (i.e., cytoplasmic fraction) and pellets were washed with the same buffer twice. The washed samples were extracted for 40 min on ice with fractionation buffer containing 0.5% NP-40 for nuclear fraction. All the samples were sonicated and clarified by centrifugation at 16,000 g for 15 min. Protein concentrations of all fractions were determined with Bio-Rad Protein Assay (Bio-Rad Laboratories, Hercules, Calif.). Immunoblotting was performed as described previously (21,22). Briefly, equal amounts of boiled protein samples were subjected to SDS-polyacrylamide gel electrophoresis (PAGE) and transferred onto nitrocellulose membranes (Bio-Rad Laboratories). Membranes were blocked for 1 hour in 3% BSA in Tris buffered saline containing 0.05% Tween 20 (TBST) and incubated for 1 hour with primary antibody (1:500 or 1:1000) diluted in TBST containing 1% BSA. After two washes with TBST, membranes were incubated for 1 hour with horseradish peroxidase-conjugated secondary Abs (1:3000 dilution) at room temperature. The immunoblots were visualized on film with the West-Q chemi-luminescence kit (GenDEPOT, Barker, Tex.).

Another assay has as its system NHEJ pathway. Put plainly: NHEJ DNA repair, GFP-based chromosomal reporter EJ5-GFP. The format is cell-based. To be noted: EJ5-GFP reporter cells, 24 h. How it is done: The EJ2 cells were generated to evaluate Alt-NHEJ through monitoring the fluorescence intensity of GFP and EJ5 cells were used to determine NJEJ as described previously. (23) Cells were seeded into 6-well plate and treated with COH29 or cisplatin at different concentration for 24 hours. The cells were then trypsinized, washed, and analyzed by flow cytometry.

The target of another assay is RR (Homo sapiens, UniProt P31350). To be noted: previously reported, ref (6); cited from earlier work.
RR, sequence (P31350 whole entry): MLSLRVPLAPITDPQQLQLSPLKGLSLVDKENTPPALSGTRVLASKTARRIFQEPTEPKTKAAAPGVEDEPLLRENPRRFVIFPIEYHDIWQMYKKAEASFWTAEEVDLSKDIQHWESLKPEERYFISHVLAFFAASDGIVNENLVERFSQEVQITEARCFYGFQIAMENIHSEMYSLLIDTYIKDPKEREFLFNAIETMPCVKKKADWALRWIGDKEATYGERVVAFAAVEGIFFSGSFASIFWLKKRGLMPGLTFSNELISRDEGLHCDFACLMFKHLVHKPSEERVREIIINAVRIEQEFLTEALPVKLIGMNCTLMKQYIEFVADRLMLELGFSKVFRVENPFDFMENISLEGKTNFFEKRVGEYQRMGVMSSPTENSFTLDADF

On to `O=C(Nc1nc(-c2ccc(O)c(O)c2)c(-c2ccccc2)s1)c1ccc(O)c(O)c1` [COH29], for which the IC50 in the assay on UWB1.289 amounted to 12.3 ± 1.15 µM; in the assay with UWB1.289 + BRCA1 it was 23.5 ± 2.38 µM; in the assay on KB-Gem, 7.5 ± 0.29 µM; in the assay on A2780-DDDP, 6.47 ± 1.41 µM. The γ-H2AX level entry in assay [1] (MCF7 and MCF-7 p53−/− cells) was “increase in the γ-H2AX level”. Also, the “DNA damage checkpoint activation (phosphorylation of ATM, CHK1, CHK2)” value in assay [1] (MCF7 cells, wild-type p53) is on record as “activated the DNA damage checkpoint”. The “DNA damage checkpoint proteins (ATM, CHK1, CHK2) modification” value in assay [1] (MCF-7 p53−/− cells) is recorded as “similarly modified”. In the assay on NHEJ pathway, the NHEJ repair efficiency entry is recorded as “little effect on NHEJ repair”. For the same compound, at RR, the “effect of RR inhibition on dNTP” value is listed as “causes dNTP depletion in vivo”.

Values taken from patent US10201530B2, “Treatment of BRCA1-defective cancer or resistant cancers” (City of Hope, priority 2014, dated 2019).
